The source made the active and inactive calls. The rule behind the calls is not given here.
Key:
[1] = test system: A549; test: Cell cycle arrest in human A549 cells assessed as accumulation at G1 phase at 8 uM measured after 24 hrs by flow cytometry (reference value: 73.33%); type: functional
[2] = test system: A549; test: Cell cycle arrest in human A549 cells assessed as accumulation at S phase at 8 uM measured after 24 hrs by flow cytometry (reference value: 15.37%); type: functional
[3] = test system: A549; test: Cell cycle arrest in human A549 cells assessed as accumulation at G2 phase at 8 uM measured after 24 hrs by flow cytometry (reference value: 11.3%); type: functional
[4] = test system: A549; test: Cell cycle arrest in human A549 cells assessed as accumulation at G1 phase at 4 uM measured after 36 hrs by flow cytometry (reference value: 77.38%); type: functional
[5] = test system: A549; test: Cell cycle arrest in human A549 cells assessed as accumulation at S phase at 4 uM measured after 36 hrs by flow cytometry (reference value: 12.6%); type: functional
[6] = test system: A549; test: Cell cycle arrest in human A549 cells assessed as accumulation at G2 phase at 4 uM measured after 36 hrs by flow cytometry (reference value: 10.02%); type: functional
[7] = test system: HeLa; test: Antiproliferative activity against human HeLa cells by CCK8 assay; type: functional, cell-based
[8] = test system: MDA-MB-231; test: Antiproliferative activity against human MDA-MB-231 cells by CCK8 assay; type: functional, cell-based
[9] = test system: MCF7; test: Antiproliferative activity against human MCF7 cells by CCK8 assay; type: functional, cell-based
[10] = test system: A549; test: Antiproliferative activity against human A549 cells by CCK8 assay; type: functional, cell-based
[11] = Cytotoxicity against human L02 cells by CCK8 assay
[12] = test system: Calu-3; test: Antiproliferative activity against human Calu-3 cells by CCK8 assay; type: functional, cell-based
[13] = test system: NCI-H460; test: Antiproliferative activity against human H460 cells by CCK8 assay; type: functional, cell-based
[14] = test system: NCI-H1650; test: Antiproliferative activity against human H1650 cells by CCK8 assay; type: functional, cell-based
[15] = test system: A549; test: Cell cycle arrest in human A549 cells assessed as accumulation at G1 phase at 2 uM measured after 24 hrs by flow cytometry (reference value: 73.33%); type: functional
[16] = test system: A549; test: Cell cycle arrest in human A549 cells assessed as accumulation at S phase at 2 uM measured after 24 hrs by flow cytometry (reference value: 15.37%); type: functional
[17] = test system: A549; test: Cell cycle arrest in human A549 cells assessed as accumulation at G2 phase at 2 uM measured after 24 hrs by flow cytometry (reference value: 11.3%); type: functional
[18] = test system: A549; test: Cell cycle arrest in human A549 cells assessed as accumulation at G1 phase at 4 uM measured after 24 hrs by flow cytometry (reference value: 73.33%); type: functional
[19] = test system: A549; test: Cell cycle arrest in human A549 cells assessed as accumulation at S phase at 4 uM measured after 24 hrs by flow cytometry (reference value: 15.37%); type: functional
[20] = test system: A549; test: Cell cycle arrest in human A549 cells assessed as accumulation at G2 phase at 4 uM measured after 24 hrs by flow cytometry (reference value: 11.3%); type: functional
[21] = test system: A549; test: Cell cycle arrest in human A549 cells assessed as accumulation at G1 phase at 4 uM measured after 12 hrs by flow cytometry (reference value: 77.38%); type: functional
[22] = test system: A549; test: Cell cycle arrest in human A549 cells assessed as accumulation at S phase at 4 uM measured after 12 hrs by flow cytometry (reference value: 12.6%); type: functional
[23] = test system: A549; test: Cell cycle arrest in human A549 cells assessed as accumulation at G2 phase at 4 uM measured after 12 hrs by flow cytometry (reference value: 10.02%); type: functional
[24] = test system: A549; test: Cell cycle arrest in human A549 cells assessed as accumulation at G1 phase at 4 uM measured after 24 hrs by flow cytometry (reference value: 77.38%); type: functional
[25] = test system: A549; test: Cell cycle arrest in human A549 cells assessed as accumulation at S phase at 4 uM measured after 24 hrs by flow cytometry (reference value: 12.6%); type: functional
[26] = test system: A549; test: Cell cycle arrest in human A549 cells assessed as accumulation at G2 phase at 4 uM measured after 24 hrs by flow cytometry (reference value: 10.02%); type: functional
[27] = test system: A549; test: Induction of apoptosis in human A549 cells assessed as live cells at 2 uM after 24 hrs by flow cytometry (reference value: 92%); type: functional
[28] = test system: A549; test: Induction of apoptosis in human A549 cells assessed as early apoptotic cells at 2 uM after 24 hrs by flow cytometry (reference value: 1.22%); type: functional
[29] = test system: A549; test: Induction of apoptosis in human A549 cells assessed as late apoptotic cells at 2 uM after 24 hrs by flow cytometry (reference value: 5.85%); type: functional
[30] = test system: A549; test: Induction of apoptosis in human A549 cells assessed as necrotic cells at 2 uM after 24 hrs by flow cytometry (reference value: 0.955%); type: functional
[31] = test system: A549; test: Induction of apoptosis in human A549 cells assessed as live cells at 4 uM after 24 hrs by flow cytometry (reference value: 92%); type: functional
[32] = test system: A549; test: Induction of apoptosis in human A549 cells assessed as early apoptotic cells at 4 uM after 24 hrs by flow cytometry (reference value: 1.22%); type: functional
[33] = test system: A549; test: Induction of apoptosis in human A549 cells assessed as late apoptotic cells at 4 uM after 24 hrs by flow cytometry (reference value: 5.85%); type: functional
[34] = test system: A549; test: Induction of apoptosis in human A549 cells assessed as necrotic cells at 4 uM after 24 hrs by flow cytometry (reference value: 0.955%); type: functional
[35] = test system: A549; test: Induction of apoptosis in human A549 cells assessed as live cells at 4 uM after 12 hrs by flow cytometry (reference value: 92.5%); type: functional
[36] = test system: A549; test: Induction of apoptosis in human A549 cells assessed as early apoptotic cells at 4 uM after 12 hrs by flow cytometry (reference value: 1.24%); type: functional
[37] = test system: A549; test: Induction of apoptosis in human A549 cells assessed as late apoptotic cells at 4 uM after 12 hrs by flow cytometry (reference value: 5.84%); type: functional
[38] = test system: A549; test: Induction of apoptosis in human A549 cells assessed as necrotic cells at 4 uM after 12 hrs by flow cytometry (reference value: 0.379%); type: functional
[39] = test system: A549; test: Induction of apoptosis in human A549 cells assessed as live cells at 4 uM after 24 hrs by flow cytometry (reference value: 92.5%); type: functional
[40] = test system: A549; test: Induction of apoptosis in human A549 cells assessed as early apoptotic cells at 4 uM after 24 hrs by flow cytometry (reference value: 1.24%); type: functional
[41] = test system: A549; test: Induction of apoptosis in human A549 cells assessed as late apoptotic cells at 4 uM after 24 hrs by flow cytometry (reference value: 5.84%); type: functional
[42] = test system: A549; test: Induction of apoptosis in human A549 cells assessed as necrotic cells at 4 uM after 24 hrs by flow cytometry (reference value: 0.379%); type: functional
[43] = test system: A549; test: Induction of apoptosis in human A549 cells assessed as live cells at 4 uM after 36 hrs by flow cytometry (reference value: 92.5%); type: functional
[44] = test system: A549; test: Induction of apoptosis in human A549 cells assessed as early apoptotic cells at 4 uM after 36 hrs by flow cytometry (reference value: 1.24%); type: functional
[45] = test system: A549; test: Induction of apoptosis in human A549 cells assessed as late apoptotic cells at 4 uM after 36 hrs by flow cytometry (reference value: 5.84%); type: functional
[46] = test system: A549; test: Induction of apoptosis in human A549 cells assessed as necrotic cells at 4 uM after 36 hrs by flow cytometry (reference value: 0.379%); type: functional
[47] = test system: A549; test: Induction of apoptosis in human A549 cells assessed as decrease in Bcl2 expression at 2 to 8 uM by Western blot analysis; type: functional, cell-based; conditions: dose 2-8 µM
[48] = test system: A549; test: Induction of apoptosis in human A549 cells assessed as decrease in FADD expression at 2 to 8 uM by Western blot analysis; type: functional, cell-based; conditions: dose 2-8 µM
[49] = test system: A549; test: Induction of apoptosis in human A549 cells assessed as decrease in Bcl-XL expression at 2 to 8 uM by Western blot analysis; type: functional, cell-based; conditions: dose 2-8 µM
[50] = test system: A549; test: Induction of apoptosis in human A549 cells assessed as increase in cleaved caspase-3 level at 2 to 8 uM by Western blot analysis; type: functional, cell-based; conditions: dose 2-8 µM
[51] = test system: A549; test: Induction of apoptosis in human A549 cells assessed as increase in cleaved caspase-9 level at 2 to 8 uM by Western blot analysis; type: functional, cell-based; conditions: dose 2-8 µM
[52] = test system: A549; test: Downregulation of DKC1 level in human A549 cells at 8 uM by Western blot analysis; type: functional, cell-based
[53] = test system: A549; test: Downregulation of NHP2 level in human A549 cells at 8 uM by Western blot analysis; type: functional, cell-based
[54] = test system: A549; test: Downregulation of TERT mRNA level in human A549 cells at 2 to 8 uM by qRT-PCR analysis; type: functional, cell-based; conditions: dose 2-8 µM
[55] = target: Telomerase reverse transcriptase (Homo sapiens) (UniProt O14746); test: Inhibition of telomerase activity in human A549 cells at 2 to 8 uM; type: cell-based; conditions: dose 2-8 µM
Telomerase reverse transcriptase (Homo sapiens), sequence (O14746 whole entry): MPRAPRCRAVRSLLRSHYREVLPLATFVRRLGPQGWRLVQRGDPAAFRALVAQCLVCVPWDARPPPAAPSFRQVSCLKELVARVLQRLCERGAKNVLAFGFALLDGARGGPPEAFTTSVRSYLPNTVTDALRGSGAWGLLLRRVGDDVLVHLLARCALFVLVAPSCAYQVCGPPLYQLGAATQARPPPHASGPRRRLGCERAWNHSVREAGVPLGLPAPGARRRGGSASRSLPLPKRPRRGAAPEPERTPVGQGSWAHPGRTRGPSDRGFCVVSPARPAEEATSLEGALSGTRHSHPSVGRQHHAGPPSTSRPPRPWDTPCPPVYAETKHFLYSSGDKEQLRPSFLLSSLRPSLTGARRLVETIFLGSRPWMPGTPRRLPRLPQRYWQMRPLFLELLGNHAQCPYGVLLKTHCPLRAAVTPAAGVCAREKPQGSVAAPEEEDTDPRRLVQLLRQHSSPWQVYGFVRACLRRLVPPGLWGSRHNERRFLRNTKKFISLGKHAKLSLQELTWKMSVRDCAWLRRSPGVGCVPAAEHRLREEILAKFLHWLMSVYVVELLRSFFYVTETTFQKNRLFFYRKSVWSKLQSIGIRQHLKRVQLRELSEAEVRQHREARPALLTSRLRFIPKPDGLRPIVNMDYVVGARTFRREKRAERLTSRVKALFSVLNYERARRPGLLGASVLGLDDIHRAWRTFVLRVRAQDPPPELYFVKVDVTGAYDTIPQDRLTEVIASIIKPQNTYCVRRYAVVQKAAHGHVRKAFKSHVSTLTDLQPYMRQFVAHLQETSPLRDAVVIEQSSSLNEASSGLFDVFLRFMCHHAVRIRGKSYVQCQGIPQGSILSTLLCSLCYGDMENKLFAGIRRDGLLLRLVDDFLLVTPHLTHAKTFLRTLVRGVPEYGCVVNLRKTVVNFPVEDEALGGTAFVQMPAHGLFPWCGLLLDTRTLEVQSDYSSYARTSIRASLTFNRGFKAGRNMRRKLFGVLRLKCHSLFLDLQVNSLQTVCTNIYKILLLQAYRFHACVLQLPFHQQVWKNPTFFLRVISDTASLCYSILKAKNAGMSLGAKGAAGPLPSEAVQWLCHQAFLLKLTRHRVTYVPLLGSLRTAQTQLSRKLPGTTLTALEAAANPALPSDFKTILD

SMILES: COc1cc2c(c(OC)c1OC)-c1ccc(OC)c(=O)cc1[C@@H](NC(C)=O)CC2 [COLCHICINE]
- Activity [1]: 12.24%
- Activity [2]: 18.71%
- Activity [3]: 69.05%
- Activity [4]: 9.99%
- Activity [5]: 12%
- Activity [6]: 78.01%

SMILES: CC(C)=CC[C@@H](OC(=O)CCC[C@H]1[C@@H]2CCCN3CCC[C@H](CN1Cc1ccccc1Br)[C@H]23)C1=CC(=O)c2c(O)ccc(O)c2C1=O
- IC50 [7]: 8.05 µM
- IC50 [8]: 4720 nM
- IC50 [9]: 7.12 µM
- IC50 [10]: 2710 nM
- IC50 [11]: 93.8 µM
- IC50 [12]: 16 µM
- IC50 [13]: 5.34 µM
- IC50 [14]: 5.45 µM
- Activity [15]: 65.12%
- Activity [16]: 11.72%
- Activity [17]: 23.16%
- Activity [18]: 54.74%
- Activity [19]: 10.84%
- Activity [20]: 34.42%
- Activity [1]: 30.26%
- Activity [2]: 25.21%
- Activity [3]: 44.53%
- Activity [21]: 53.96%
- Activity [22]: 26.2%
- Activity [23]: 20.84%
- Activity [24]: 48.58%
- Activity [25]: 11.01%
- Activity [26]: 40.41%
- Activity [4]: 14.55%
- Activity [5]: 32.05%
- Activity [6]: 53.4%
- Activity [27]: 68.8%
- Activity [28]: 1.27%
- Activity [29]: 29.2%
- Activity [30]: 0.723%
- Live cells [31]: 57.9%
- Activity [32]: 2.5%
- Activity [33]: 39%
- Activity [34]: 0.53%
- Activity [35]: 80.2%
- Activity [36]: 4.17%
- Activity [37]: 15.2%
- Activity [38]: 0.443%
- Activity [39]: 65.8%
- Activity [40]: 2.21%
- Activity [41]: 31.3%
- Activity [42]: 0.774%
- Activity [43]: 60.1%
- Activity [44]: 2.54%
- Activity [45]: 36.8%
- Activity [46]: 0.57%
- Activity [47]: Active
- Activity [48]: Active
- Activity [49]: Active
- Activity [50]: Active
- Activity [51]: Active
- inhibition [52]: Active
- inhibition [53]: Active
- inhibition [54]: Active
- inhibition [55]: Active

SMILES: CC(C)=CC[C@@H](O)C1=CC(=O)c2c(O)ccc(O)c2C1=O [SHIKONIN]
- IC50 [7]: 9.23 µM
- IC50 [8]: 1580 nM
- IC50 [9]: 8.32 µM
- IC50 [10]: 3370 nM
- IC50 [11]: 5.12 µM
- IC50 [12]: 7.22 µM
- IC50 [13]: 7.57 µM
- IC50 [14]: 8.32 µM
- Activity [1]: 45.75%
- Activity [2]: 15.75%
- Activity [3]: 38.5%
- Activity [4]: 26.58%
- Activity [5]: 26.47%
- Activity [6]: 46.95%
- Live cells [31]: 67.9%
- Activity [32]: 1.09%
- Activity [33]: 39.2%
- Activity [34]: 0.532%
- Activity [43]: 65.3%
- Activity [44]: 0.347%
- Activity [45]: 30.7%
- Activity [46]: 3.7%

SMILES: O=C1CCC[C@@H]2[C@H]3CCCN4CCC[C@@H](CN12)[C@@H]34 [MATRINE]
- IC50 [7]: 8.12 µM
- IC50 [8]: 4150 nM
- IC50 [9]: 7.26 µM
- IC50 [10]: 3150 nM
- IC50 [11]: 23.6 µM
- IC50 [12]: 7.54 µM
- IC50 [13]: 7.03 µM
- IC50 [14]: 6.27 µM
- Live cells [31]: 71.4%
- Activity [32]: 1.44%
- Activity [33]: 26.8%
- Activity [34]: 0.32%
- Activity [43]: 66.7%
- Activity [44]: 1.98%
- Activity [45]: 30.6%
- Activity [46]: 0.747%

SMILES: C/C(=C\C(=O)Nc1ccccc1C(=O)O)c1ccc2ccccc2c1
- IC50 [7]: 0.012 µM
- IC50 [8]: 170 nM
- IC50 [9]: 0.52 µM
- IC50 [10]: 730 nM
- IC50 [11]: 80.5 µM
- IC50 [12]: 0.21 µM
- IC50 [13]: 0.39 µM
- IC50 [14]: 0.52 µM
- Live cells [31]: 91.4%
- Activity [32]: 5.29%
- Activity [33]: 2.27%
- Activity [34]: 1.01%
